Experimental data taken from US20070298026A1, “Methods for Identifying Treatment and Inducing Infertility Using Smc1-Beta” (MOUNT SINAI SCHOOL OF MEDICINE Office of Industrial Liaison, priority 2003, published 2007).
Entries after “also recorded” stand apart in the source; their conditions may differ.

How the values were obtained:
[1] = test system: Rec8 or STAG3; experiment: Degradation of other cohesin subunits in testis nuclear extracts; type: biochemical, mouse; settings: ATP added to testis nuclear extract
[2] = test system: SMC1β; experiment: SMC1β proteolysis/degradation assay in testis nuclear extracts (immunoblot); type: biochemical, mouse; settings: for effect of added SMC1β protein fragment on degradation of SMC1β: increasing amounts of fragment added to testis nuclear extract, anti-SMC1β immunoblot
Description: It is very likely, that phosphorylation and/or protein degradation play an important role in regulating the removal of SMC1β and its complex from meiotic chromosomes. Understanding this mechanism would fill a significant gap in our knowledge of the meiotic process and of regulation of SMC1β function. It is unlikely that association and dissociation of cohesins are regulated exclusively through Rec8, because Rec8 behaves differently from SMC1β and SMC3 (Eijpe et al., J. Cell Biol. 160:657-670,2003; and see below). As a first approach to address this question, a series of proteolysis assays were undertaken. In these assays, nuclear extracts from mouse testis were incubated under various conditions and investigated the intactness of SMC1β by immunoblotting.
To begin testing the effect of phosphorylation, nuclear extracts were prepared in the presence or absence of general phosphatase inhibitors (1 mM o-vanadate, 10 mM β-glycerophosphate). If a phosphorylated SMC1β is more prone to degradation, inhibited dephosphorylation should stimulate degradation. […] The effect of phosphatase inhibition can either be direct—on SMC1β phosphorylation—or indirect, i.e. on maintaining an activated state of the protease or of a regulator of the protease. The mechanism of phosphatase inhibition and the identification of enzymes that are involved are currently being examined.
Speculating that the 120-kDa product seen in degradation assays is a true intermediate of SMC1β degradation, two fragments of SMC1β that span either one of the two putative regions of cleavage, positioned at about 30 kDa distance from each of the termini, were subcloned and expressed in E. coli. Thus, an N-terminal or a C-terminal polypeptide of 33 or 35 kDa, respectively, was expressed and purified. While the N-terminal fragment was purified to near homogeneity (100 mM imidazole fraction), there were one major and a few minor contaminants in the C-terminal fragment preparation. The putative region of cleavage was identified at the center of these polypeptides (N-terminal fragment: amino acids 174 to 420; C-terminal fragment: amino acids 820 to 1073). These proteins were used in cleavage inhibition assays. […] Thus, there is early evidence for a cleavage site within the N-terminal region between amino acids 174 and 420, and the precise cleavage site is being determined.
In attempts to identify the protease cleavage site within SMC1β, N-terminal and C-terminal protein fragments of SMC1β were purified in increasing concentrations of imidazole in elution buffer and run on silver-stained SDS polyacrylamide gels. To assay degradation, increasing amounts of N- or C-terminal protein fragments were then added to a reaction containing extract incubated with and without competitor. Reactions were then separated eletrophoretically on SDS polyacrylamide gels, immunoblotted, and probed with anti-SMC1β antibody. […] Cleavage of the N-terminal fragment itself is currently being investigated.

[3] = test system: type A spermatogonial cells; settings: cited from earlier work
[4] = test system: spermatocytes; experiment: Okadaic acid-induced premature transition of cultured spermatocytes into metaphase I; type: cell-based; settings: wildtype mouse spermatocytes; 5 μM okadaic acid for 5 h
Description: As a result, 20 bivalents, each with two pairs of unseparated, closely apposed sister kinetochores and at least one chiasma became visible. […] Co-staining for γ-H2AX, which decreases from zygotene to pachytene, allowed for determination of the stage at which the cells were exposed to OA. Cells with 80 centromere signals were of pachytene origin (no γ-H2AX), and cells with 40 centromere signals were of zygotene origin (patchy γ-H2AX).
Most antibodies used have been described (Eijpe et al., supra, 2000; Revenkova et al., supra, 2001; and 14. Eijpe et al., J. Cell Biol. 3,.657-670, 2003). Mouse anti-MLH1 was from BDPharMingen, rabbit-antiMLH1 from Calbiochem, and rabbit anti-SMC1α from Bethyl Labs Inc. Mouse anti-γH2AX was donated by A. Pastink, rabbit anti-SMC3 by J. -M. Peters, rabbit anti-RAP1 by T. de Lange, mouse anti-ATR by P. de Boer, mouse anti-MLH3 by P. Cohen, and goat anti-rat SCP3 by T. Ashley. Paraffin and frozen sections of mouse testis, and dry-down preparations of testis cell suspensions were prepared, incubated for immunocytochemistry and analyzed as described (Eijpe et al., supra, 2000;, Revenkova et al., supra, 2001; Eijpe et al., J. Cell Biol. 3, 657-670, 2003; Peters et al., Chromosome Res. 5:66-68, 1997). Mice were labeled in vivo with BrdU, and detected -the incorporated BrdU in sections and dry-down preparations as described before (Eijpe et al, supra, 2003). […]

[5] = target: T1, human PEP (Homo sapiens, UniProt P48147); settings: inhibitor from Calbiochem Inc.; cited from earlier work
T1 sequence (P48147 1-710): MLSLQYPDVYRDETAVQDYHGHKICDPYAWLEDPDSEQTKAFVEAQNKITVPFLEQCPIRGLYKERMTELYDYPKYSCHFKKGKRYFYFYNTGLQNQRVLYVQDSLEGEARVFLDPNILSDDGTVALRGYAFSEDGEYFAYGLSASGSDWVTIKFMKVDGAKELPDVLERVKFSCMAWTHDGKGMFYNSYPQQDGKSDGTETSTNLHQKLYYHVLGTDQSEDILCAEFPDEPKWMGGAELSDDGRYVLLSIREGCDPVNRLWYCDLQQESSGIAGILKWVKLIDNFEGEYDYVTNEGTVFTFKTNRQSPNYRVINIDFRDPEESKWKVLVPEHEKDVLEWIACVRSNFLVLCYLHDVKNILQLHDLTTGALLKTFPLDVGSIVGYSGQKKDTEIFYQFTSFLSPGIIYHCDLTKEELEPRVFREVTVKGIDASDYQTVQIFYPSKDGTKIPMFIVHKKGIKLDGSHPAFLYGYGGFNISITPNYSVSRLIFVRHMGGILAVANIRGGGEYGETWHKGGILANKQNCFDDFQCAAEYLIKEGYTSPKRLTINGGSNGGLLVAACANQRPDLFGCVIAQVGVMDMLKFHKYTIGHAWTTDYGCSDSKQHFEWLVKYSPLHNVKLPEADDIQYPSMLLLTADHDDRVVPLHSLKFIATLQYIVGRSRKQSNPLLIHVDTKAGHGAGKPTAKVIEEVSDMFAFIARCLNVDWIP

In the case of `Nc1ncnc2c1ncn2[C@@H]1O[C@H](COP(=O)(O)OP(=O)(O)OP(=O)(O)O)[C@@H](O)[C@H]1O` [ATP], the “effect of ATP on degradation of Rec8 or STAG3” value [1] is reported as “not enhanced by addition of ATP, but rather inhibited” and the “effect of ATP on SMC1β degradation” value ([2]; ATP added to testis nuclear extract) is reported as “increased the efficiency of the reaction; also recorded: stimulates SMC1β degradation”.

For “stem cell factor: stem cell factor (SCF; kit ligand) added to induce meiosis in spermatogonial cultures”, the “cells that are 4N” value ([3]; after 1 week of induction) is given as 40% and the “total cell population that is haploid” value ([3]; after 3 weeks of induction) is given as 58%.

For `C=C1[C@@H](O)[C@@H]2O[C@]3(CC[C@H](/C=C/[C@@H](C)[C@@H]4CC(C)=C[C@@]5(O[C@H](C[C@@](C)(O)C(=O)O)CC[C@H]5O)O4)O3)CC[C@H]2O[C@@H]1[C@@H](O)C[C@H](C)[C@H]1O[C@@]2(CCCCO2)CC[C@H]1C` [OA, okadaic acid], the “effect on chromosome condensation and cohesion” value [4] was “caused premature chromosome condensation from mid-pachytene on, without affecting sister chromatid arm and centromere cohesion”.

In the case of `CC(C)(C)OC(=O)NC(CCC(=O)NOC(=O)c1ccccc1)C(=O)N1CCCC1` (stereo not shown) [Boc-Glu(NHO-Bz)-Pyr], the Ki [5] is listed as 30 nM.

B1: N-terminal protein: SMC1β N-terminal fragment, amino acids 174 to 420, 33 kDa polypeptide expressed in E. coli (protein, UniProt Q8NDV3 174-420, looked up, fragment)
chain: KLQKAEEDAQFNFNKKKNIAAERRQAKLEKEEAERYQSLLEELKMNKIQLQLFQLYHNEKKIHLLNTKLEHVNRDLSVKRESLSHHENIVKARKKEHGMLTRQLQQTEKELKSVETLLNQKRPQYIKAKENTSHHLKKLDVAKKSIKDSEKQCSKQEDDIKALETELADLDAAWRSFEKQIEEEILHKKRDIELEASQLDRYKELKEQVRKKVATMTQQLEKLQWEQKTDEERLAFEKRRHGEVQGN
For B1, the “effect of added SMC1β protein fragment on degradation of SMC1β” value (“effect of added SMC1β protein fragment” below) [2] was “inhibited the degradation of SMC1β”, the “effect of added SMC1β protein fragment” value ([2]; listed as N-terminal 33-kDa fragment) was “identified as an inhibitor to protease cleavage” and the “effect of added SMC1β protein fragment” value ([2]; listed as N-terminal peptide of SMC1β) was “inhibited specifically”.

B2: C-terminal protein: SMC1β C-terminal fragment, amino acids 820 to 1073, 35 kDa polypeptide expressed in E. coli (protein, UniProt Q8NDV3 820-1073, looked up, fragment)
chain: QLEYSRSHLKKKLNKINTLKETIQKGSEDIDHLKKAEENCLQTVNELMAKQQQLKDIRVTQNSSAEKVQTQIEEERKKFLAVDREVGKLQKEVVSIQTSLEQKRLEKHNLLLDCKVQDIEIILLSGSLDDIIEVEMGTEAESTQATIDIYEKEEAFEIDYSSLKEDLKALQSDQEIEAHLRLLLQQVASQEDILLKTAAPNLRALENLKTVRDKFQESTDAFEASRKEARLCRQEFEQVKKRRYDLFTQCFEHV
With B2 the “effect of added SMC1β protein fragment” value [2] was “degradation was not affected”.
